Data from patent US7468384B2, “Microbicidal composition” (Rohm and Haas Company, priority 2004, dated 2008).
Where two headings read alike, the source gives them in different places.

How the values were obtained:
Format in all cases: cell-based
[1] = test system: Aspergillus niger (A. niger—ATCC 16404); experiment: Synergy test, microtiter plate high resolution MIC assay, mold; set-up: key to SI (calculated synergy index) / SI (synergy index): SI = Qa/QA + Qb/QB (mixture vs. alone end-point concentrations); conditions: for MIC: Aspergillus niger
From the text: (§1) One measure of synergism is the industrially accepted method described by Kull, F. C.; Eisman, P. C.; Sylwestrowicz, H. D. and Mayer, R. L., in Applied Microbiology 9:538-541 (1961), using the ratio determined by the formula: Qa/QA+Qb/QB=Synergy Index (“SI”) wherein: • QA=concentration of compound A (first component) in ppm, acting alone, which produced an end point (MIC of Compound A). • Qa=concentration of compound A in ppm, in the mixture, which produced an end point. • QB=concentration of compound B (second component) in ppm, acting alone, which produced an end point (MIC of Compound B). • Qb=concentration of compound B in ppm, in the mixture, which produced an end point.
(§2) When the sum of Qa/QA and Qb/QB is greater than one, antagonism is indicated. […] The lower the SI, the greater the synergy shown by that particular mixture. The minimum inhibitory concentration (MIC) of a microbicide is the lowest concentration tested under a specific set of conditions that prevents the growth of added microorganisms.
(§3) Synergy tests were conducted using standard microtiter plate assays with media designed for optimal growth of the test microorganism. Soybean Casein Digest Broth (Tryptic Soy Broth, TSB medium) or minimal salt medium supplemented with 0.2% glucose and 0.1% yeast extract (M9GY medium) was used for testing bacteria; Potato Dextrose Broth (PDB medium) was used for testing yeast and mold. In this method, a wide range of combinations of microbicides was tested by conducting high resolution MIC assays in the presence of various concentrations of MI. High resolution MICs were determined by adding varying amounts of microbicide to one column of a microtitre plate and doing subsequent ten-fold dilutions using an automated liquid handling system to obtain a series of endpoints ranging from 2 ppm to 10,000 ppm active ingredient.
(§4) For MI combinations, the synergy of the combinations of the present invention was determined against two bacteria, Escherichia coli (E. coli—ATCC #8739) or Pseudomonas aeruginosa (P. aeruginosa—ATCC #15442), a yeast, Candida albicans (C. albicans—ATCC 10231), and a mold, Aspergillus niger (A. niger—ATCC 16404). The bacteria were used at a concentration of about 5×10^6 bacteria per mL and the yeast and mold at 5×10^5 fungi per mL. These microorganisms are representative of natural contaminants in many consumer and industrial applications. […] (bacteria).
(§5) For BIT combinations, the synergy of the combinations of the present invention was determined against a bacterium, Pseudomonas aeruginosa (P. aeruginosa—ATCC #15442), a yeast, Candida albicans (C. albicans—ATCC 10231), and a mold, Aspergillus niger (A. niger—ATCC 16404). The bacteria were used at a concentration of about 5×10^6 bacteria per mL and the yeast and mold at 5×10^5 fungi per mL. These microorganisms are representative of natural contaminants in many consumer and industrial applications. […] (yeast and mold) or 30° C. (bacteria).

[2] = test system: Pseudomonas aeruginosa (P. aeruginosa—ATCC #15442); experiment: Synergy test, microtiter plate high resolution MIC assay, bacterium; set-up: key to SI (calculated synergy index) / SI (synergy index): SI = Qa/QA + Qb/QB (mixture vs. alone end-point concentrations); conditions: P. aeruginosa 15442, M9GY; for Qb: alone or mixed with BIT; for Qb (second component at end point, MIC) / MIC: alone where Qa = 0; for MIC: Pseudomonas aeruginosa
From the text: as §1, §2, §3, §4, §5

[3] = test system: Candida albicans (C. albicans—ATCC 10231); experiment: Synergy test, microtiter plate high resolution MIC assay, yeast; conditions: C. albicans 10231, PDB; for Qb: alone or mixed with BIT
From the text: as §1, §2, §3, §4, §5

[4] = test system: Escherichia coli (E. coli—ATCC #8739); experiment: Synergy test, microtiter plate high resolution MIC assay, bacterium; conditions: E. coli 8739, M9GY; for Qb: alone or mixed with BIT
From the text: as §1, §2
as §3, with “In this method, a wide range of combinations of microbicides was tested by conducting high resolution MIC assays in the presence of various concentrations of MI.” left out
as §4

[5] = benzyl alcohol concentration giving end point (MIC), 48 hours
[6] = synergy index BIT + benzyl alcohol, 48 hours
[7] = caprylyl glycol concentration giving end point (MIC), 24 hours
[8] = synergy index BIT + caprylyl glycol, 24 hours
[9] = diazolidinyl urea concentration giving end point (MIC), 48 hours
[10] = synergy index BIT + diazolidinyl urea, 48 hours
[11] = Table 25, sodium dehydroacetic acid with BIT, 24 hours, alone where Qa = 0

Q: What does the source list for `CNC(=O)c1ccccc1SSc1ccccc1C(=O)NC` [2,2′-dithiobis(N-methylbenzamide)]?
A: MIC ([1]; ATCC16404, 72 h, 2,2′-dithiobis(N-methylbenzamide) concentration giving end point (MIC), alone or mixed with BIT, A. niger 16404, PDB, 3 days, read-out: Qb): 1000 µg/mL; SI ([1]; synergy index BIT + 2,2′-dithiobis(N-methylbenzamide), A. niger 16404, PDB, 3 days): 1.00; Qb ([2]; 2,2′-dithiobis(N-methylbenzamide) concentration giving end point (MIC), 48 hours): 200 ppm; SI ([2]; synergy index BIT + 2,2′-dithiobis(N-methylbenzamide), 48 hours): 1.00

Q: `OCc1ccccc1` [Benzyl alcohol] was tested. Which Qb [3, 5] did it give?
A: 4000 ppm

Q: And the SI [3, 6]?
A: 1.00

Q: What about the MIC ([1]; ATCC16404, 168 h, benzyl alcohol concentration giving end point (MIC), alone or mixed with BIT, A. niger 16404, PDB, 1 week, read-out: Qb) of the same compound?
A: 5000 µg/mL

Q: What about the SI ([1]; synergy index BIT + benzyl alcohol, A. niger 16404, PDB, 1 week) of the same compound?
A: 1.00

Q: And the Qb ([4]; benzyl alcohol concentration giving end point (MIC), 24 hours)?
A: 4000 ppm

Q: And the SI ([4]; synergy index BIT + benzyl alcohol, 24 hours)?
A: 1.00

Q: What about the Qb [2, 5] of the same compound?
A: 200 ppm

Q: What about the SI [2, 6] of the same compound?
A: 1.00

Q: What does the source list for `CCCCCCC(O)CO` (stereo not shown) [Caprylyl glycol]?
A: MIC of component acting alone (QA / QB) ([3]; 48 hours): 2000 ppm; Qb [3, 7]: 2000 ppm; SI [3, 8]: 1.00; MIC of component acting alone (QA / QB) ([1]; A. niger 16404, PDB, 1 week): 3000 ppm; Qb ([1]; caprylyl glycol concentration giving end point (MIC), alone or mixed with BIT, A. niger 16404, PDB, 1 week): 2000 ppm; SI ([1]; synergy index BIT + caprylyl glycol, A. niger 16404, PDB, 1 week): 1.00; MIC of component acting alone (QA / QB) ([4]; 24 hours): 2000 ppm; Qb [4, 7]: 2000 ppm; SI [4, 8]: 1.00; MIC of component acting alone (QA / QB) ([2]; 48 hours): 3000 ppm; Qb [2, 7]: 3000 ppm; SI [2, 8]: 1.00

Q: What does the source list for `O=C(NCO)N(CO)C1(CO)C(=O)NC(=O)N1CO` (stereo not shown) [Diazolidinyl urea]?
A: Qb ([3]; diazolidinyl urea concentration giving end point (MIC), 24 hours): 2000 ppm; SI ([3]; synergy index BIT + diazolidinyl urea, 24 hours): 1.00; MIC ([1]; ATCC16404, 72 h, diazolidinyl urea concentration giving end point (MIC), alone or mixed with BIT, A. niger 16404, PDB, 3 days, read-out: Qb): 1000 µg/mL; SI ([1]; synergy index BIT + diazolidinyl urea, A. niger 16404, PDB, 3 days): 1.00; Qb [4, 9]: 100 ppm; SI [4, 10]: 1.00; Qb [2, 9]: 80 ppm; SI [2, 10]: 1.00

Q: `O=C(O)CN(CCN(CC(=O)O)CC(=O)O)CC(=O)O` [EDTA, ethylenediamine tetraacetic acid] was tested. Which MIC ([1]; ATCC16404, 96 h, read-out: Qb) did it give?
A: 2000 µg/mL

Q: What about the SI ([1]; synergy index BIT + EDTA, A. niger 16404, PDB, 4 days) of the same compound?
A: 1.00

Q: `CC(=O)c1c([O-])cc(C)oc1=O.[Na+]` [Sodium dehydroacetic acid] was tested. Which “MIC of component acting alone (QA / QB)” value ([3]; 24 hours) did it give?
A: 40 ppm

Q: And the “SI (synergy index)” value ([3]; Table 25, 24 hours)?
A: 1.00

Q: What about the “Qb (second component at end point, MIC)” value [3, 11] of the same compound?
A: 30 ppm

Q: What about the “MIC of component acting alone (QA / QB)” value ([1]; A. niger 16404, PDB, 4 days) of the same compound?
A: 80 ppm

Q: And the “SI (synergy index)” value ([1]; Table 25, A. niger 16404, PDB, 1 week)?
A: 1.00

Q: What about the “Qb (second component at end point, MIC)” value ([1]; Table 25, sodium dehydroacetic acid with BIT, A. niger 16404, PDB, 1 week, alone where Qa = 0) of the same compound?
A: 200 ppm

Q: And the “MIC of component acting alone (QA / QB)” value ([4]; 24 hours)?
A: 10000 ppm

Q: And the “SI (synergy index)” value ([4]; Table 25, 24 hours)?
A: 1.00

Q: What about the “Qb (second component at end point, MIC)” value [4, 11] of the same compound?
A: 10000 ppm

Q: And the “MIC of component acting alone (QA / QB)” value ([2]; 48 hours)?
A: 10000 ppm

Q: What about the “SI (synergy index)” value ([2]; Table 25, 24 hours) of the same compound?
A: 1.00

Q: What about the “Qb (second component at end point, MIC)” value ([2]; Table 25, sodium dehydroacetic acid with BIT, 24 hours) of the same compound?
A: 10000 ppm

Q: Which MIC ([1]; ATCC16404, 72 h, read-out: Qb (second component at end point, MIC)) does the source give for `O=C([O-])CNCO.[Na+]` [Sodium hydroxymethylglycinate] here?
A: 600 µg/mL

Q: And the “SI (synergy index)” value ([1]; Table 27, A. niger 16404, PDB, 3 days)?
A: 1.00

Q: And the MIC ([2]; ATCC15442, 24 h, read-out: Qb (second component at end point, MIC), Table 27, Sodium hydroxymethylglycinate with BIT, 24 hours)?
A: 2000 µg/mL

Q: And the “SI (synergy index)” value ([2]; Table 27, 24 hours)?
A: 1.00

Q: What does the source list for `CCOC(=O)c1ccc(O)cc1` [ethylparaben]?
A: MIC ([1]; ATCC16404, 72 h, ethylparaben concentration giving end point (MIC), alone or mixed with BIT, A. niger 16404, PDB, 3 days, read-out: Qb): 2000 µg/mL; SI ([1]; synergy index BIT + ethylparaben, A. niger 16404, PDB, 3 days): 1.00; Qb ([2]; ethylparaben concentration giving end point (MIC), 48 hours): 3000 ppm; SI ([2]; synergy index BIT + ethylparaben, 48 hours): 1.00

Q: Which results are given for `COC(=O)c1ccc(O)cc1` [methylparaben]?
A: MIC ([1]; ATCC16404, 96 h, read-out: Qb): 800 µg/mL; SI ([1]; synergy index BIT + methylparaben, A. niger 16404, PDB, 4 days): 1.00; Qb ([2]; methylparaben concentration giving end point (MIC), 48 hours): 3000 ppm; SI ([2]; synergy index BIT + methylparaben, 48 hours): 1.00

Q: Which results are given for `CCCOC(=O)c1ccc(O)cc1` [propylparaben]?
A: MIC ([1]; ATCC16404, 72 h, Table 23, propylparaben with BIT, A. niger 16404, PDB, 3 days, alone where Qa = 0, read-out: Qb (second component at end point, MIC)): 1000 µg/mL; SI (synergy index) ([1]; Table 23, A. niger 16404, PDB, 3 days): 1.00; MIC ([2]; ATCC15442, Table 23, propylparaben with BIT, 24 hours, read-out: Qb (second component at end point, MIC)): 10000 µg/mL; SI (synergy index) ([2]; Table 23, 24 hours): 1.00

Q: Which results are given for Benzalkonium chloride?
A: SI (calculated synergy index) ([1]; Table 8, A. niger 16404, PDB, 1 week): 1.00; Qb: end-point activity (MIC) of second component in the mixture (alone, QB, where Qa = 0) ([1]; Table 8, A. niger 16404, PDB, 1 week, B = Benzalkonium chloride): 200 ppm; SI (calculated synergy index) ([2]; Table 8, 48 hours): 1.00; Qb: end-point activity (MIC) of second component in the mixture (alone, QB, where Qa = 0) ([2]; Table 8, 48 hours, B = Benzalkonium chloride): 40 ppm

Q: zinc pyrithione was tested. Which “SI (synergy index)” value ([1]; Table 28, A. niger 16404, PDB, 1 week) did it give?
A: 1.00

Q: And the “Qb (second component at end point, MIC)” value ([1]; Table 28, zinc pyrithione with BIT, A. niger 16404, PDB, 1 week, alone where Qa = 0)?
A: 8 ppm

Q: What about the “SI (synergy index)” value ([2]; Table 28, 48 hours) of the same compound?
A: 1.00

Q: What about the “Qb (second component at end point, MIC)” value ([2]; Table 28, zinc pyrithione with BIT, 48 hours) of the same compound?
A: 80 ppm
